What was measured:
[1] = tested on: leptomeningeal carcinomatosis (LC); assay: Treatment of LC in breast cancer subjects, CNS RECIST brain parenchymal tumor response; assay type: in vivo, human; settings: 600 mg/m^2 iv tri-weekly
Description: Twenty-eight subjects diagnosed with LC were administered 600 mg/m^2 of ANG1005 intravenously on a tri-weekly schedule. The subjects received between one and nine cycles of ANG1005.
The results of the treatment of the subjects according to CNS Response Evaluation Criteria in Solid Tumors (RECIST) based on brain parenchymal tumor response is shown in Table 2.

[2] = tested on: leptomeningeal carcinomatosis; assay: Treatment of individual LC subjects with ANG1005 (Subjects 2, 3, 4, 8); assay type: in vivo, human
Source text: Subject 2 presented at the time of treatment with ANG1005 with an active tumor extending from the deep portion of the surgical cavity to the right tentorial surface and along the lateral right temporal occipital dural surface. Subject 2 started treatment with ANG1005 in October 2014 and received 7 cycles (once every three weeks). Treatment was terminated due to clinical disease progression.
Subject 3 presented at the time of treatment with ANG1005 with numerous (>10) brain metastases all of which had increased in size despite prior treatment. Extensive scattered osseous metastatic disease in head/neck. After presenting with a numb chin (left trigeminal cranial nerve deficits), Subject 3 was also found to have leptomeningeal disease. Subject 3 started treatment with ANG1005 in September 2014 and received 5 cycles (once every three weeks). Treatment was terminated due to adverse event (pneumonia).
Subject 4 is a person diagnosed in October 2011 with HER2+/ER−/PgR− ductal carcinoma in situ. In November 2012, Subject 4 was diagnosed with brain metastases, and in March 2015 the brain metastases relapsed with leptomeningeal carcinomatosis. Subject 4 previously received several courses of therapy including carboplatin from October to November 2011, denosumab from November 2011 to November 2012, paclitaxel from December 2011 to March 2012, WBRT, transtuzumab from May 2012 to November 2012, and kadcyla from April 2013 to December 2014. Subject 4 presented at the time of treatment with ANG1005 with parenchymal metastases present in the cerebellum and widespread LC of the cerebellum and cerebral hemispheres. In addition, Subject 4 presented with mild ventricular enlargement with compression upon the fourth ventricle and cutflow tracts. Subject 4 started treatment with ANG1005 in March 2015 and received 8 cycles (once every three weeks). Subject withdrew from treatment due to low performance scores.
Subject 8 started treatment with ANG1005 in April 2015 and received 2 cycles (once every three weeks). Subject 8 terminated from treatment in July 2015 due to clinical progression.

[3] = tested on: leptomeningeal carcinomatosis; assay: Kaplan-Meier estimates of survival for subjects with LC; assay type: in vivo, human; settings: compared to historical median overall survival of 3-6 months following aggressive treatment
Source text: The Kaplan-Meier method was used to estimate the overall survival of LC subjects treated with ANG1005.

LRP receptor [4] = assay: Inhibition of brain uptake of an Angiopep conjugate by LRP ligands
Source text: (§1) The methods of the invention may be especially useful in treating cancers having cells that express low density lipoprotein-related protein (LRP) receptor. The LRP receptor is expressed on the surface of cells, and is capable of binding to various substrates including aprotinin. The polypeptides described herein were designed based on the consensus kunitz-domain sequences that act as LRP receptor ligands (see, e.g., PCT Publication No. WO 2004/060403). Uptake of the conjugates including Angiopep-1 or Angiopep-2 is inhibited by LRP ligands, thus indicating involvement of LRP in this process.

LRP receptor [5] = biological target: T1, LRP receptor (Homo sapiens, UniProt Q07954); assay: Inhibition of uptake of Angiopep conjugates into cells; assay type: cell-based; settings: Angiopep-2 10 or 100 μM
T1 construct: The LRP receptor is expressed on the surface of cells; endogenous in cells
T1 sequence (Q07954 20-4544): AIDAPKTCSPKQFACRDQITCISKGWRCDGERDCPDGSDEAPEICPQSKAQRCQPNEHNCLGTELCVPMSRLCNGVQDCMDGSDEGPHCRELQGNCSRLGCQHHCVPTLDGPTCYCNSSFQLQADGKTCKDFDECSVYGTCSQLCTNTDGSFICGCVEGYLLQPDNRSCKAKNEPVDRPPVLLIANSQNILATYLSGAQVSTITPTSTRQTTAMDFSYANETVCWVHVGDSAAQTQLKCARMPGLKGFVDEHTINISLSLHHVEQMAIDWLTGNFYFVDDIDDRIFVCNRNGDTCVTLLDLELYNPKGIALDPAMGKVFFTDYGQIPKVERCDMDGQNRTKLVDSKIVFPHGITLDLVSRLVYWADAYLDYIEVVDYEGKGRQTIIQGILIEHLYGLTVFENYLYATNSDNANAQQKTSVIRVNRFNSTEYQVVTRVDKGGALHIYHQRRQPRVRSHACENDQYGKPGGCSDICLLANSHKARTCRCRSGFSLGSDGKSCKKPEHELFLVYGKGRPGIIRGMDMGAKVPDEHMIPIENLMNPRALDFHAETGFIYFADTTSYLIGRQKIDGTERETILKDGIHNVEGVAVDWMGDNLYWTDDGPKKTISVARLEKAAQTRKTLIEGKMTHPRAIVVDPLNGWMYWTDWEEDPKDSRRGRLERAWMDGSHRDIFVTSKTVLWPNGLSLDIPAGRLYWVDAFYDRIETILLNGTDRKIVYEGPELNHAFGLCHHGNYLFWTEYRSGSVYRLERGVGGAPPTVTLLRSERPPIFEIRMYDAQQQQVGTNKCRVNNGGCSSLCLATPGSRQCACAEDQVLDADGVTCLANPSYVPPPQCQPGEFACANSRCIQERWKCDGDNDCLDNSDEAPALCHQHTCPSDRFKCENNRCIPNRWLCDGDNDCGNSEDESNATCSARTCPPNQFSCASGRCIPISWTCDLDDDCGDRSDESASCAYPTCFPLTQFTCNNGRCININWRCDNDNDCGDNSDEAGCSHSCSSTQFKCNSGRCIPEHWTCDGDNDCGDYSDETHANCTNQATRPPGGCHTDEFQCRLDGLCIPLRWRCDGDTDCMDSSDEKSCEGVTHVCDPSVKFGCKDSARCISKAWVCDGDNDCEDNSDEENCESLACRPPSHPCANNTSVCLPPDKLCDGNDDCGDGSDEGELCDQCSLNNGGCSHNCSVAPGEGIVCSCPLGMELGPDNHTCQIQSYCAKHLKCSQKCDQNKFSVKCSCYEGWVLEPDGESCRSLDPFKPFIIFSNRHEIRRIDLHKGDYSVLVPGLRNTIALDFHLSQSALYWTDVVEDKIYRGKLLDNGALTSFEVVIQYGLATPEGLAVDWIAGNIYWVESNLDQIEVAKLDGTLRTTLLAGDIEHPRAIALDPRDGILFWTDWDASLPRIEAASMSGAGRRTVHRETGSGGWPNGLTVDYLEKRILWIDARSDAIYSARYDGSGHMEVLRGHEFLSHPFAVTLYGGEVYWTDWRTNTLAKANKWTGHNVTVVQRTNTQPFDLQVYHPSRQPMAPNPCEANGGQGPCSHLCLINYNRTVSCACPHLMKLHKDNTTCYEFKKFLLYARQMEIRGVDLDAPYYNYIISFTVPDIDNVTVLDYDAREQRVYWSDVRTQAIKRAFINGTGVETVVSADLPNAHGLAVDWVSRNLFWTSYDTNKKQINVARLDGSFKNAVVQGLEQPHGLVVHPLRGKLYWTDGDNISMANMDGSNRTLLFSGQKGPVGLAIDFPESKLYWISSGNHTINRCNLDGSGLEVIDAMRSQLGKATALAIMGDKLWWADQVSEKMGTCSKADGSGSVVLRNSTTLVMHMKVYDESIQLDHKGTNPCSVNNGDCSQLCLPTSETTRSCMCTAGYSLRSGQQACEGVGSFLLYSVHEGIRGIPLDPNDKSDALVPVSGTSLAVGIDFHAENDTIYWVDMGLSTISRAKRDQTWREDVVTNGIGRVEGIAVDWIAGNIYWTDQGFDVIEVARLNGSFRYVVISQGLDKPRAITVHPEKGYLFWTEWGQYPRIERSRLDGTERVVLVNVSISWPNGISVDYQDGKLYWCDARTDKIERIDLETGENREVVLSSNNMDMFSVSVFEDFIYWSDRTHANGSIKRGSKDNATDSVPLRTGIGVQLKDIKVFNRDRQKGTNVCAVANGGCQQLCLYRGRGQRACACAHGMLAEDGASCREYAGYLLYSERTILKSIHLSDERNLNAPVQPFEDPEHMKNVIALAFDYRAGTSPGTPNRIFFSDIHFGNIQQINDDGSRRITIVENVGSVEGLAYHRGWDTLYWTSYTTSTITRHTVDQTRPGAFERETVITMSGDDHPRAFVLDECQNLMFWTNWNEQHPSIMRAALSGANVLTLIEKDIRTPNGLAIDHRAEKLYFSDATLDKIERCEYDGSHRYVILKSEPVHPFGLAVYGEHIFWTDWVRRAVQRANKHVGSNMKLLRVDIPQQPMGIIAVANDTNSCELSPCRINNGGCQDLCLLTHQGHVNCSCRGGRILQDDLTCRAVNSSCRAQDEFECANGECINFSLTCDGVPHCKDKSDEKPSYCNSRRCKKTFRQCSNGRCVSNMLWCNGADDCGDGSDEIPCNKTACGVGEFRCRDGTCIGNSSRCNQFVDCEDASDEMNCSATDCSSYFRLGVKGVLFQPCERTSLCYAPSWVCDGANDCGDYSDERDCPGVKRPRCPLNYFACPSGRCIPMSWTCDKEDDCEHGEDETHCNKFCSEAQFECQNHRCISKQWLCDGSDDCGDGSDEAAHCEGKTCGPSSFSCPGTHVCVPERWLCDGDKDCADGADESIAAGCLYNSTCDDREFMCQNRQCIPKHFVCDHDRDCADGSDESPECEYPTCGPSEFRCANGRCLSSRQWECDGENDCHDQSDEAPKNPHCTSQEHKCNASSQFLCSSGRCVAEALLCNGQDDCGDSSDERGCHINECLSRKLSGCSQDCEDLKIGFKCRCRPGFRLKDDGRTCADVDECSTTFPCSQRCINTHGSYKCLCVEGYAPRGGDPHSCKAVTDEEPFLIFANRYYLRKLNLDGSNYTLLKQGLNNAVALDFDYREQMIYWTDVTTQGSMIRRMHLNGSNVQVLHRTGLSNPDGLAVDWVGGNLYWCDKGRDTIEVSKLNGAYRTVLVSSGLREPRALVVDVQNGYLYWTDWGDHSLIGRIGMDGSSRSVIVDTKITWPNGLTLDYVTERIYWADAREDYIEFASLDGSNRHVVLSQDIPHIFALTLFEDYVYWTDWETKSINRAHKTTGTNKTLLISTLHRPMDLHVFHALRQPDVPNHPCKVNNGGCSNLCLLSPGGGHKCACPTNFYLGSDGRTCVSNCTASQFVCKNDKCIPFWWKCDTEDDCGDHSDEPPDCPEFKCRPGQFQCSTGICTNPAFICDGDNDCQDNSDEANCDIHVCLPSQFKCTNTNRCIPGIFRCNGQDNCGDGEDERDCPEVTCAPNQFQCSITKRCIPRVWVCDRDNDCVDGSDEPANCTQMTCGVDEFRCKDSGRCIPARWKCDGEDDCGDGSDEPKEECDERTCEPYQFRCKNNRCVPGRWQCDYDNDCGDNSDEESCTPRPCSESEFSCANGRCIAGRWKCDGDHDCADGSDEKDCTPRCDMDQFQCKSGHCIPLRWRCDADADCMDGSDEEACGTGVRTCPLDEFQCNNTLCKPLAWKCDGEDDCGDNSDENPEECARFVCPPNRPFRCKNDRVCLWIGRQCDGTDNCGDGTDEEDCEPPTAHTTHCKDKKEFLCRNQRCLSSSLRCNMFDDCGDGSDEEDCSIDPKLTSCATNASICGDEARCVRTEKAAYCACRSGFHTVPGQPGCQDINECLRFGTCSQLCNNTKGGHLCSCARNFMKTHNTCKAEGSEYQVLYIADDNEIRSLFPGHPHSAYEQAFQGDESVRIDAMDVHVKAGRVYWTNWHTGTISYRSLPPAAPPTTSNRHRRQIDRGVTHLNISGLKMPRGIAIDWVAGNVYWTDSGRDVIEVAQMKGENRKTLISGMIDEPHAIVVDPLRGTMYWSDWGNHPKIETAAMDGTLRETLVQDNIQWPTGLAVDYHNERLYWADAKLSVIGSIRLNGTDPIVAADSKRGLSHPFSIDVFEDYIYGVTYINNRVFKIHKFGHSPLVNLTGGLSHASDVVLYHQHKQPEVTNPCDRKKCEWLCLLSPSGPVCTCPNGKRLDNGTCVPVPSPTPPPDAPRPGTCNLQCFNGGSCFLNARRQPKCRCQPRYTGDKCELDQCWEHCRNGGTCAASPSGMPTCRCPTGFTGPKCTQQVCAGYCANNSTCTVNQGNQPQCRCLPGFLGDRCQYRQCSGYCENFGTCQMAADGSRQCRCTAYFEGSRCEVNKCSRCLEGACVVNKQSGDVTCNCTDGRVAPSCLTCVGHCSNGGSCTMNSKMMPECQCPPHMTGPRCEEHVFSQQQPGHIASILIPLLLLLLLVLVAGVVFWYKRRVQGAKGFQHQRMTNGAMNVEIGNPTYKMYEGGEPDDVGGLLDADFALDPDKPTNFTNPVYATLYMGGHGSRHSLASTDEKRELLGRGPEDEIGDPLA
Source text: as §1

**Q.** Which results are given for `CC(=O)O[C@H]1C(=O)[C@@]2(C)[C@H]([C@H](OC(=O)c3ccccc3)[C@]3(O)C[C@H](OC(=O)C(OC(=O)CCC(=O)NCCCC[C@H](NN[C@@H](Cc4ccccc4)C(=O)C(=O)C(CC(N)=O)NC(=O)[C@H](CC(N)=O)NC(=O)[C@H](CCCNC(=N)N)NC(=O)[C@H](CCCCNC(=O)CCC(=O)O[C@@H](C(=O)O[C@H]4C[C@@]5(O)[C@@H](OC(=O)c6ccccc6)[C@@H]6[C@]7(OC(C)=O)CO[C@@H]7C[C@H](O)[C@@]6(C)C(=O)[C@H](OC(C)=O)C(=C4C)C5(C)C)[C@@H](NC(=O)c4ccccc4)c4ccccc4)NNCC(=O)C(=O)[C@H](CCCNC(=N)N)NC(=O)[C@H](CO)NC(=O)CNC(=O)CNC(=O)C(Cc4ccc(O)cc4)NC(=O)[C@H](Cc4ccccc4)NC(=O)C(Cc4ccccc4)NCC(=O)[C@H](NC(=O)CCC(=O)O[C@@H](C(=O)O[C@H]4C[C@@]5(O)[C@@H](OC(=O)c6ccccc6)[C@@H]6[C@]7(OC(C)=O)CO[C@@H]7C[C@H](O)[C@@]6(C)C(=O)[C@H](OC(C)=O)C(=C4C)C5(C)C)[C@@H](NC(=O)c4ccccc4)c4ccccc4)C(C)O)C(=O)N[C@H](C(=O)NC(CCC(=O)O)C(=O)N[C@@H](CCC(=O)O)C(=O)NC(C=O)Cc4ccc(O)cc4)[C@@H](C)O)[C@@H](NC(=O)c4ccccc4)c4ccccc4)C(C)=C1C3(C)C)[C@]1(OC(C)=O)CO[C@@H]1C[C@@H]2O` (stereo partly shown) [ANG1005]?
**A.** Partial Response (PR), number of patients ([1]; All Patients (n = 23)): 5; Partial Response (PR), percent of patients ([1]; All Patients (n = 23)): (22%); Patient Benefit (PR + SD), number of patients ([1]; All Patients (n = 23)): 17; Progressive Disease, number of patients ([1]; All Patients (n = 23)): 6; Progressive Disease, percent of patients ([1]; All Patients (n = 23)): (26%); Stable Disease (SD), number of patients ([1]; All Patients (n = 23)): 12; Stable Disease (SD), percent of patients ([1]; All Patients (n = 23)): (52%); Partial Response (PR), number of patients ([1]; HER2+ (n = 15)): 4; Partial Response (PR), percent of patients ([1]; HER2+ (n = 15)): (27%); Patient Benefit (PR + SD), number of patients ([1]; HER2+ (n = 15)): 12; Progressive Disease, number of patients ([1]; HER2+ (n = 15)): 3; Progressive Disease, percent of patients ([1]; HER2+ (n = 15)): (20%); Stable Disease (SD), number of patients ([1]; HER2+ (n = 15)): 8; Stable Disease (SD), percent of patients ([1]; HER2+ (n = 15)): (53%); Partial Response (PR), number of patients ([1]; HER2− (n = 8)): 1; Partial Response (PR), percent of patients ([1]; HER2− (n = 8)): (12.5%); Patient Benefit (PR + SD), number of patients ([1]; HER2− (n = 8)): 5; Patient Benefit (PR + SD), percent of patients ([1]; HER2− (n = 8)): (62.5%); Progressive Disease, number of patients ([1]; HER2− (n = 8)): 3; Progressive Disease, percent of patients ([1]; HER2− (n = 8)): (37.5%); Stable Disease (SD), number of patients ([1]; HER2− (n = 8)): 4; Stable Disease (SD), percent of patients ([1]; HER2− (n = 8)): (50%); Response of leptomeningeal carcinomatosis ([2]; Subject 2, HER2+/ER−/PgR+, 7 cycles once every three weeks, dural lesion no longer apparent, leptomeningeal nodule decreasing in size): responded; Response of leptomeningeal carcinomatosis ([2]; Subject 3, HER2+/ER−/PgR−, 5 cycles once every three weeks): improved both radiographically and clinically; Adverse event causing treatment termination ([2]; Subject 3, after 5 cycles once every three weeks): pneumonia; Response of leptomeningeal carcinomatosis ([2]; Subject 4, HER2+/ER−/PgR−, 8 cycles once every three weeks, diminished nodular leptomeningeal enhancement, decreased leptomeningeal tumor burden): responded; Response of leptomeningeal carcinomatosis ([2]; Subject 8, HER2+/ER+/PgR−, 2 cycles once every three weeks, improvement in extensive LC in the cerebellum): responded; Median overall survival (Kaplan-Meier estimate) [3]: increase median overall survival

**Q.** For RAP: LRP ligand, which “Effect on brain uptake of an Angiopep conjugate” value (LRP receptor [4]; RAP 200 nM) is on record?
**A.** capable of reducing brain uptake

**Q.** Which “Effect on uptake of the conjugates into cells” value (LRP receptor [5]) does the source give for TFFYGGSRGKRNNFKTEEY [Angiopep-2] here?
**A.** able to reduce uptake

**Q.** How did the “Effect on brain uptake of an Angiopep conjugate” value (LRP receptor [4]; aprotinin 10 μM) turn out when aprotinin was run?
**A.** capable of reducing brain uptake
